Experimental data taken from patent US9693556B2, “Herbicidal pyridazinone derivatives” (SYNGENTA LIMITED, priority 2011, dated 2017).

Assays:
Format in all cases: in vivo
Solanum nigrum (SOLNI) [1] = assay: Pre-emergence herbicidal glasshouse test on Solanum nigrum; settings: pre-emergence; 1000 g/h; evaluated after 13 days
Method in brief: (§1)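 Scoring scale: 5=80-100%, 4=60-79%, 3=40-59%, 2=20-39%, 1=0-19% damage, assessed on day 13. Compound sprayed at 1000 g/h on soil-grown plants (day 1 pre-, day 8 post-emergence) kept at 24/16 °C, 14 h light.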

Setaria faberi (SETFA) [2] = assay: Pre-emergence herbicidal glasshouse test on Setaria faberi; settings: pre-emergence; 1000 g/h; evaluated after 13 days
Method in brief: as §1

[3] = system: Echinochloa crus-galli (ECHCG); assay: Pre-emergence herbicidal glasshouse test on Echinochloa crus-galli; settings: pre-emergence; 1000 g/h; evaluated after 13 days
Method in brief: as §1

[4] = system: Amaranthus retoflexus (AMARE); assay: Pre-emergence herbicidal glasshouse test on Amaranthus retoflexus; settings: pre-emergence; 1000 g/h; evaluated after 13 days
Method in brief: as §1

[5] = system: Alopecurus myosuroides (ALOMY); assay: Post-emergence herbicidal glasshouse test on Alopecurus myosuroides; settings: post-emergence; 1000 g/h; evaluated after 13 days
Method in brief: as §1

Setaria faberi (SETFA) [6] = assay: Post-emergence herbicidal glasshouse test on Setaria faberi; settings: post-emergence; 1000 g/h; evaluated after 13 days
Method in brief: as §1

[7] = system: Ipomoea hederacea (IPOHE); assay: Pre-emergence herbicidal glasshouse test on Ipomoea hederacea; settings: pre-emergence; 1000 g/h; evaluated after 13 days
Method in brief: as §1

Solanum nigrum (SOLNI) [8] = assay: Post-emergence herbicidal glasshouse test on Solanum nigrum; settings: post-emergence; 1000 g/h; evaluated after 13 days
Method in brief: as §1

[9] = system: Alopecurus myosuroides (ALOMY); assay: Pre-emergence herbicidal glasshouse test on Alopecurus myosuroides; settings: pre-emergence; 1000 g/h; evaluated after 13 days
Method in brief: as §1

[10] = system: Echinochloa crus-galli (ECHCG); assay: Post-emergence herbicidal glasshouse test on Echinochloa crus-galli; settings: post-emergence; 1000 g/h; evaluated after 13 days
Method in brief: as §1

[11] = system: Ipomoea hederacea (IPOHE); assay: Post-emergence herbicidal glasshouse test on Ipomoea hederacea; settings: post-emergence; 1000 g/h; evaluated after 13 days
Method in brief: as §1

[12] = system: Amaranthus retoflexus (AMARE); assay: Post-emergence herbicidal glasshouse test on Amaranthus retoflexus; settings: post-emergence; 1000 g/h; evaluated after 13 days
Method in brief: as §1

Row | SMILES | PRE Application SOLNI herbicidal damage (five point scale) (Solanum nigrum (SOLNI) [1]) | PRE Application SETFA herbicidal damage (five point scale) (Setaria faberi (SETFA) [2]) | PRE Application ECHCG herbicidal damage (five point scale) [3] | PRE Application AMARE herbicidal damage (five point scale) [4] | POST Application ALOMY herbicidal damage (five point scale) [5] | POST Application SETFA herbicidal damage (five point scale) (Setaria faberi (SETFA) [6]) | PRE Application IPOHE herbicidal damage (five point scale) [7] | POST Application SOLNI herbicidal damage (five point scale) (Solanum nigrum (SOLNI) [8]) | PRE Application ALOMY herbicidal damage (five point scale) [9] | POST Application ECHCG herbicidal damage (five point scale) [10] | POST Application IPOHE herbicidal damage (five point scale) [11] | POST Application AMARE herbicidal damage (five point scale) [12]
1 | Cn1ncc(-c2ccc(C(F)(F)F)nc2Cl)c(O)c1=O [Compound 4.014] | 4 (4=60-79% damage) | 1 (1=0-19% damage) | 5 (5=80-100% damage) | 5 (5=80-100% damage) | 1 (1=0-19% damage) | 2 (2=20-39% damage) | 2 (2=20-39% damage) | 5 (5=80-100% damage) | 1 (1=0-19% damage) | 3 (3=40-59% damage) | 5 (5=80-100% damage) | 5 (5=80-100% damage)
2 | CCCn1ncc(-c2c(Cl)cccc2Cl)c(O)c1=O [Compound 1.129] | 1 (1=0-19% damage) | 1 (1=0-19% damage) | 1 (1=0-19% damage) | 1 (1=0-19% damage) | 1 (1=0-19% damage) | 2 (2=20-39% damage) | 1 (1=0-19% damage) | 3 (3=40-59% damage) | 1 (1=0-19% damage) | 2 (2=20-39% damage) | 2 (2=20-39% damage) | 3 (3=40-59% damage)
3 | Cn1ncc(-c2ccccc2S(=O)(=O)C(F)(F)F)c(O)c1=O [Compound 1.056] | 4 (4=60-79% damage) | 1 (1=0-19% damage) | 5 (5=80-100% damage) | 5 (5=80-100% damage) | 5 (5=80-100% damage) | 5 (5=80-100% damage) | 1 (1=0-19% damage) | 5 (5=80-100% damage) | 5 (5=80-100% damage) | 5 (5=80-100% damage) | 5 (5=80-100% damage) | 5 (5=80-100% damage)
4 | C=C(C)Cn1cccc(-c2cnn(C)c(=O)c2O)c1=O [Compound 9.007] | 1 (1=0-19% damage) | 1 (1=0-19% damage) | 1 (1=0-19% damage) | 1 (1=0-19% damage) | 1 (1=0-19% damage) | 2 (2=20-39% damage) | 1 (1=0-19% damage) | 4 (4=60-79% damage) | 1 (1=0-19% damage) | 1 (1=0-19% damage) | 2 (2=20-39% damage) | 3 (3=40-59% damage)
5 | Cn1ncc(-c2ccc(S(C)(=O)=O)c(COCC(F)(F)F)c2Cl)c(O)c1=O [Compound 1.049] | 5 (5=80-100% damage) | 3 (3=40-59% damage) | 5 (5=80-100% damage) | 5 (5=80-100% damage) | 5 (5=80-100% damage) | 5 (5=80-100% damage) | 1 (1=0-19% damage) | 5 (5=80-100% damage) | 2 (2=20-39% damage) | 5 (5=80-100% damage) | 5 (5=80-100% damage) | 5 (5=80-100% damage)
6 | CN(C)c1c(Cl)ccc(-c2cnn(C)c(=O)c2O)c1F [Compound 1.064] | 1 (1=0-19% damage) | 1 (1=0-19% damage) | 1 (1=0-19% damage) | 1 (1=0-19% damage) | 1 (1=0-19% damage) | 1 (1=0-19% damage) | 1 (1=0-19% damage) | 5 (5=80-100% damage) | 1 (1=0-19% damage) | 1 (1=0-19% damage) | 4 (4=60-79% damage) | 5 (5=80-100% damage)
7 | Cn1ncc(-c2ccc(S(=O)(=O)N3CCOCC3)cc2S(C)(=O)=O)c(O)c1=O [Compound 2.037] | 5 (5=80-100% damage) | 2 (2=20-39% damage) | 5 (5=80-100% damage) | 5 (5=80-100% damage) | 3 (3=40-59% damage) | 4 (4=60-79% damage) | 4 (4=60-79% damage) | 5 (5=80-100% damage) | 3 (3=40-59% damage) | 5 (5=80-100% damage) | 5 (5=80-100% damage) | 5 (5=80-100% damage)
8 | CC(C)Oc1nn(C)c(=O)c(O)c1-c1ccc(C(F)(F)F)cc1S(C)(=O)=O [Compound 2.052] | 5 (5=80-100% damage) | 3 (3=40-59% damage) | 5 (5=80-100% damage) | 5 (5=80-100% damage) | 5 (5=80-100% damage) | 5 (5=80-100% damage) | 4 (4=60-79% damage) | 5 (5=80-100% damage) | 4 (4=60-79% damage) | 5 (5=80-100% damage) | 5 (5=80-100% damage) | 5 (5=80-100% damage)
9 | CN(Cc1nc(C(F)(F)F)ccc1-c1cnn(C)c(=O)c1O)S(C)(=O)=O [Compound 1.040] | 5 (5=80-100% damage) | 5 (5=80-100% damage) | 5 (5=80-100% damage) | 5 (5=80-100% damage) | 4 (4=60-79% damage) | 5 (5=80-100% damage) | 4 (4=60-79% damage) | 5 (5=80-100% damage) | 5 (5=80-100% damage) | 5 (5=80-100% damage) | 5 (5=80-100% damage) | 5 (5=80-100% damage)
10 | CCS(=O)(=O)c1nc(C(F)(F)F)ccc1-c1cnn(C)c(=O)c1O [Compound 1.135] | 5 (5=80-100% damage) | 5 (5=80-100% damage) | 5 (5=80-100% damage) | 5 (5=80-100% damage) | 4 (4=60-79% damage) | 5 (5=80-100% damage) | 5 (5=80-100% damage) | 5 (5=80-100% damage) | 4 (4=60-79% damage) | 5 (5=80-100% damage) | 5 (5=80-100% damage) | 5 (5=80-100% damage)
